Experimental data from patent publication US12697330B2, “Therapeutic methods using vadadustat” (Akebia Therapeutics, Inc., priority 2021, dated 2026).

Test system: hemoglobin (Hb)
Assay: Phase 2 study in hemodialysis subjects converting from epoetin alfa, Main Study: efficacy (hemoglobin)
Type: in vivo, human
Details: for Change in Hb from Primary Evaluation Period to Secondary Evaluation Period, Mean (SD) / Change in Hb from Primary Evaluation Period to Secondary Evaluation Period, Median / Hb at Primary Evaluation Period (Average of Weeks 10 to 12), Mean (SD) / Hb at Primary Evaluation Period (Average of Weeks 10 to 12), Median / Hb at Secondary Evaluation Period (Average of Weeks 18 to 20), Mean (SD) / Hb at Secondary Evaluation Period (Average of Weeks 18 to 20), Median: completed 12 weeks of treatment
Source text: The primary objective was to assess the efficacy and safety of daily dosing of vadadustat compared to epoetin alfa for 12 weeks in hemodialysis subjects. Additional objectives included to assess the efficacy and safety of three times weekly (TIW) dosing of vadadustat in selected hemodialysis subjects who have been successfully managed with daily dosing of vadadustat through Week 12, to evaluate the PK/PD of daily and TIW dosing of vadadustat in hemodialysis subjects compared to epoetin alfa, and to assess the efficacy and safety of several dosing strategies of vadadustat compared to epoetin alfa during a 20-week Treatment Period in hemodialysis subjects.
The Main study population consisted of adult subjects receiving chronic, outpatient in-center hemodialysis three times weekly (TIW), with 2 screening hemoglobin (Hb) values between 8.5 and 11.0 g/dL (inclusive) and on maintenance treatment with epoetin alfa <300 U/kg/week.
Efficacy Endpoints. The primary endpoint was the mean change in Hb between Baseline (average pretreatment Hb) and the primary evaluation period (average Hb from Weeks 10 to 12). Secondary endpoints included proportion of subjects with Hb values within the target range (10.0 to 11.0 g/dL, inclusive) at the primary evaluation period (Weeks 10-12) and for subjects who transitioned to TIW vadadustat dosing, mean change in Hb from primary evaluation period (average Hb from Weeks 10-12) to the secondary period (average Hb from Weeks 18-20). Other secondary endpoints included mean change in Hb from Baseline (average pretreatment Hb) and the secondary evaluation period (average Hb from Weeks 18-20), proportion of subjects with Hb values within the target range (10.0 to 11.0 g/dL, inclusive) at the secondary evaluation period (Weeks 18 to 20), for subjects who transitioned to TIW vadadustat dosing, proportion of subjects with Hb values within the target range (10.0 to 11.0 g/dL, inclusive) at the secondary evaluation period (Weeks 18-20), proportion of subjects with a mean increase in Hb from Baseline to the primary evaluation period ≥0.5 g/dL (average Hb from Weeks 10-12) or with Hb values within the target range (10.0 to 11.0 g/dL, inclusive) at the primary evaluation period (Weeks 10-12), proportion of subject with a mean increase in Hb from Baseline to the secondary evaluation period ≥0.5 g/dL (average Hb from Weeks 18-20) or with Hb values within the target range (10.0 to 11.0 g/dL, inclusive) at the secondary evaluation period (Weeks 18-20), intravenous (IV) iron supplementation, ESA rescue, and RBC transfusion.
Study Design. This was a Phase 2, randomized, open-label study to evaluate vadadustat for the treatment of anemia in hemodialysis subjects converting from epoetin alfa therapy. For all subjects (Main study and ESA hyporesponder parallel study), the study included a Screening Period, a study Treatment Period, and a Safety Follow-Up Period as described below. PK and PD sampling were done throughout the study. The aim was to achieve and maintain Hb levels within the target range of 10.0 to 11.0 g/dL, inclusive, while targeting the middle of the range and minimizing excursions outside the target range.
Randomization. Subjects were randomized to either a vadadustat treatment arm or epoetin alfa treatment arm. Randomization was stratified by mean weekly epoetin alfa dose calculated over a period of 8 weeks prior to SV2: low epoetin alfa dose group (≤90 U/kg/week) or high epoetin alfa dose group (>90 to <300 U/kg/week). In the low epoetin alfa dose group, subjects were randomized in a 3:3:2 ratio to receive either an initial vadadustat daily dose of 450 mg (3 tablets) or 300 mg (2 tablets), or epoetin alfa. In the high epoetin alfa dose group, subjects were randomized in a 3:3:3:2 ratio to receive either an initial vadadustat daily dose of 600 mg (4 tablets), 450 mg (3 tablets) or 300 mg (2 tablets), or epoetin alfa.
Study Treatment Period (Baseline/Day 1 to Week 20). […]

[1] = Vadadustat, subjects did not switch
[2] = Vadadustat, subjects switched from QD to TIW
[3] = whole treatment group, Main Study

Compound: O=C(O)CNC(=O)c1ncc(-c2cccc(Cl)c2)cc1O [vadadustat, {[5-(3-chlorophenyl)-3-hydroxypyridine-2-carbonyl]amino}acetic acid]
- Mean change from baseline in Hb over time, versus comparator (Randomized population, FIG. 13 and FIG. 14): lower than the epoetin alfa treatment group throughout
- Change in Hb from Primary Evaluation Period to Secondary Evaluation Period, Mean (SD) (Vadadustat Total, Overall): −0.064 (1.2236) g/dL
- Change in Hb from Primary Evaluation Period to Secondary Evaluation Period, Median (Vadadustat Total, Overall): -0.033 g/dL
- Hb at Primary Evaluation Period (Average of Weeks 10 to 12), Mean (SD) (Vadadustat Total, Overall): 9.809 (1.1548) g/dL
- Hb at Primary Evaluation Period (Average of Weeks 10 to 12), Median (Vadadustat Total, Overall): 9.900 g/dL
- Hb at Secondary Evaluation Period (Average of Weeks 18 to 20), Mean (SD) (Vadadustat Total, Overall): 9.876 (0.8867) g/dL
- Hb at Secondary Evaluation Period (Average of Weeks 18 to 20), Median (Vadadustat Total, Overall): 9.800 g/dL
- Change in Hb from Primary Evaluation Period to Secondary Evaluation Period, Mean (SD) [1]: 0.039 g/dL
- Change in Hb from Primary Evaluation Period to Secondary Evaluation Period, Median [1]: 0.067 g/dL
- Hb at Primary Evaluation Period (Average of Weeks 10 to 12), Mean (SD) [1]: 9.694 (1.2248) g/dL
- Hb at Primary Evaluation Period (Average of Weeks 10 to 12), Median [1]: 9.483 g/dL
- Hb at Secondary Evaluation Period (Average of Weeks 18 to 20), Mean (SD) [1]: 9.854 (0.8378) g/dL
- Hb at Secondary Evaluation Period (Average of Weeks 18 to 20), Median [1]: 9.800 g/dL
- Change in Hb from Primary Evaluation Period to Secondary Evaluation Period, Mean (SD) (Vadadustat, subjects did not switch, listed as Vadadustat): 0.039 (1.2286) g/dL
- Change in Hb from Primary Evaluation Period to Secondary Evaluation Period, Mean (SD) [2]: -0.422 g/dL
- Change in Hb from Primary Evaluation Period to Secondary Evaluation Period, Median [2]: -0.350 g/dL
- Hb at Primary Evaluation Period (Average of Weeks 10 to 12), Mean (SD) [2]: 10.376 (0.3754) g/dL
- Hb at Primary Evaluation Period (Average of Weeks 10 to 12), Median [2]: 10.433 g/dL
- Hb at Secondary Evaluation Period (Average of Weeks 18 to 20), Mean (SD) [2]: 9.955 (1.0716) g/dL
- Hb at Secondary Evaluation Period (Average of Weeks 18 to 20), Median [2]: 9.900 g/dL
- Change in Hb from Primary Evaluation Period to Secondary Evaluation Period, Mean (SD) (Vadadustat, subjects switched from QD to TIW, listed as Vadadustat): −0.422 (1.1708) g/dL
- proportion of subjects having Hb values within target range at Weeks 10 to 12 (vadadustat 300 mg group of the high epoetin alfa stratum): 8.3%
- course of Hb versus baseline (vadadustat 300 mg, high epoetin alfa stratum): decrease from baseline in Hb up to Week 10, after which Hb began to return towards baseline
- mean (SD) Hb at the PEP (Weeks 10 to 12) [3]: 9.78 (1.048) g/dL
- mean (SD) changes from baseline in Hb at the PEP [3]: −0.35 (0.976) g/dL
- proportion of subjects having Hb values within target range at the PEP (Weeks 10 to 12) [3]: 32.7%
